Laboratory results published in PubChem BioAssay AID256 (DTP/NCI, 2004).
“And” between values parts separate entries of the source, which are not always exact repeats. Equal values may be shown once. Toxic doses and inconclusive results are not listed. The calls were made as follows: active = survival T/C of 150% or more; inactive = T/C below 125% in these data.

Tested on: CD2F1 mice, L1210 leukemia ip, survival T/C
Assay: NCI In Vivo Anticancer Drug Screen. Data for tumor model L1210 Leukemia (intraperitoneal) in CD2F1 (CDF1) mice
Settings: higher = longer survival
Summary of the method: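 Mice carrying a transplanted tumor received test compound or vehicle alone. The value is the measurement in the treated group divided by that in the vehicle-treated control group.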

[1] = endpoint: mean survival time, dose: 100.0 mg/kg/injection, schedule: Q04DX002 (ip), vehicle: saline with Tween-80
[2] = endpoint: mean survival time, dose: 100.0 mg/kg/injection, schedule: Q01DX001 (ip), vehicle: saline with Tween-80
[3] = endpoint: mean survival time, dose: 200.0 mg/kg/injection, schedule: Q01DX001 (ip), vehicle: saline with Tween-80
[4] = endpoint: mean survival time, dose: 400.0 mg/kg/injection, schedule: Q01DX001 (ip), vehicle: saline with Tween-80
[5] = endpoint: mean survival time, dose: 100.0 mg/kg/injection, schedule: Q01DX009 (ip), vehicle: saline with Tween-80

Measured: T/C

CC1=C(NNS(=O)(=O)c2ccc(C)cc2)CCCC1=O
inactive: endpoint: mean survival time, dose: 25.0 mg/kg/injection, schedule: Q04DX002 (ip), vehicle: saline with Tween-80 94 % of control | endpoint: mean survival time, dose: 50.0 mg/kg/injection, schedule: Q04DX002 (ip), vehicle: saline with Tween-80 97 % of control | [1] 91 % of control and 96 % of control

Nc1ncnc2c1ncn2CCCCCO
inactive: [2] 96 % of control | [3] 91 % of control | [4] 91 % of control

CCOc1ccc(-c2nc3ccc(-c4nc5ccc(N6CCN(C)CC6)cc5[nH]4)cc3[nH]2)cc1
inactive: endpoint: median survival time, dose: 0.75 mg/kg/injection, schedule: Q01DX009 (ip), vehicle: saline 112 % of control | endpoint: median survival time, dose: 0.75 mg/kg/injection, schedule: Q01DX009 (ip), vehicle: suspension in saline 94 % of control | endpoint: median survival time, dose: 1.5 mg/kg/injection, schedule: Q01DX009 (ip), vehicle: saline 112 % of control | endpoint: median survival time, dose: 1.5 mg/kg/injection, schedule: Q01DX009 (ip), vehicle: suspension in saline 95 % of control | endpoint: median survival time, dose: 3.0 mg/kg/injection, schedule: Q01DX009 (ip), vehicle: suspension in saline 104 % of control | endpoint: median survival time, dose: 6.0 mg/kg/injection, schedule: Q01DX009 (ip), vehicle: suspension in saline 105 % of control | endpoint: median survival time, dose: 12.0 mg/kg/injection, schedule: Q01DX009 (ip), vehicle: suspension in saline 104 % of control | endpoint: median survival time, dose: 24.0 mg/kg/injection, schedule: Q01DX009 (ip), vehicle: saline 118 % of control | endpoint: median survival time, dose: 24.0 mg/kg/injection, schedule: Q01DX009 (ip), vehicle: suspension in saline 117 % of control

Cn1c(=O)c2c(ncn2C2C(=O)NNC2=O)n(C)c1=O
inactive: endpoint: mean survival time, dose: 12.5 mg/kg/injection, schedule: Q01DX005 (ip), vehicle: distilled water + Tween-80 102 % of control | endpoint: mean survival time, dose: 25.0 mg/kg/injection, schedule: Q01DX005 (ip), vehicle: distilled water + Tween-80 104 % of control | endpoint: mean survival time, dose: 50.0 mg/kg/injection, schedule: Q01DX005 (ip), vehicle: distilled water + Tween-80 104 % of control | endpoint: mean survival time, dose: 100.0 mg/kg/injection, schedule: Q01DX005 (ip), vehicle: distilled water + Tween-80 98 % of control | endpoint: mean survival time, dose: 200.0 mg/kg/injection, schedule: Q01DX005 (ip), vehicle: distilled water + Tween-80 92 % of control | endpoint: mean survival time, dose: 400.0 mg/kg/injection, schedule: Q01DX005 (ip), vehicle: distilled water + Tween-80 95 % of control

CCC(=N\N=C(N)N)/C(C)=N\N=C(N)N
inactive: endpoint: mean survival time, dose: 15.0 mg/kg/injection, schedule: Q01DX009 (ip), vehicle: saline 95 % of control | endpoint: mean survival time, dose: 30.0 mg/kg/injection, schedule: Q01DX009 (ip), vehicle: saline 91 % of control

COC(=O)C(CCCCN=Cc1ccccc1O)N=Cc1ccccc1O.[Ni] (stereo not given)
inactive: endpoint: mean survival time, dose: 12.5 mg/kg/injection, schedule: Q01DX009 (ip), vehicle: saline with Tween-80 96 % of control | endpoint: mean survival time, dose: 25.0 mg/kg/injection, schedule: Q01DX009 (ip), vehicle: saline with Tween-80 96 % of control | endpoint: mean survival time, dose: 50.0 mg/kg/injection, schedule: Q01DX009 (ip), vehicle: saline with Tween-80 88 % of control and 94 % of control | [5] 93 % of control

COc1cc2c(c(Oc3ccc(C)cc3)c1)CN(C)CC2
inactive: endpoint: mean survival time, dose: 25.0 mg/kg/injection, schedule: Q04DX003 (ip), vehicle: saline 105 % of control | endpoint: mean survival time, dose: 50.0 mg/kg/injection, schedule: Q04DX003 (ip), vehicle: saline 100 % of control | endpoint: mean survival time, dose: 100.0 mg/kg/injection, schedule: Q04DX003 (ip), vehicle: saline 105 % of control

N#CCCOS(=O)(=O)c1ccc(N)c([N+](=O)[O-])c1
inactive: [2] 103 % of control | [5] 93 % of control | [3] 100 % of control | endpoint: mean survival time, dose: 200.0 mg/kg/injection, schedule: Q01DX009 (ip), vehicle: saline with Tween-80 96 % of control | [4] 102 % of control | endpoint: mean survival time, dose: 400.0 mg/kg/injection, schedule: Q01DX009 (ip), vehicle: saline with Tween-80 96 % of control

O=C(/C=C/c1ccccn1)c1ccc(Cl)cc1
inactive: endpoint: mean survival time, dose: 100.0 mg/kg/injection, schedule: Q01DX001 (ip), vehicle: Klucel (hydroxypropylcellulose) (HPC) 97 % of control | endpoint: mean survival time, dose: 200.0 mg/kg/injection, schedule: Q01DX001 (ip), vehicle: Klucel (hydroxypropylcellulose) (HPC) 97 % of control | endpoint: mean survival time, dose: 400.0 mg/kg/injection, schedule: Q01DX001 (ip), vehicle: Klucel (hydroxypropylcellulose) (HPC) 105 % of control

Nc1nc2c(ncn2-c2ccc3ccccc3c2)c(=O)[nH]1
inactive: [2] 91 % of control | [3] 88 % of control | [4] 95 % of control

O=c1[nH]cc(S)c(=O)[nH]1
inactive: [1] 106 % of control | endpoint: mean survival time, dose: 200.0 mg/kg/injection, schedule: Q04DX002 (ip), vehicle: saline with Tween-80 97 % of control | endpoint: mean survival time, dose: 400.0 mg/kg/injection, schedule: Q04DX002 (ip), vehicle: saline with Tween-80 106 % of control
